Results reported in patent US20240383915A1, “OXAZEPINE COMPOUNDS AND USES THEREOF IN THE TREATMENT OF CANCER” (Genentech, Inc., priority 2021, published 2024).

Tests used:
KRas(G12V) = KRas(G12V) (Homo sapiens (Human), UniProt P01116, G12V); experiment: KRas(G12V) GDP HTRF (BODIPY-GDP exchange TR-FRET); format: biochemical
KRas = KRas (Homo sapiens (Human), UniProt P01116); experiment: KRas GDP HTRF (BODIPY-GDP exchange TR-FRET); format: biochemical
Procedure, shortened: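 Inhibition of SOS1-mediated exchange of BODIPY-GDP on KRAS G12D, started with 3 nM recombinant human SOS1 and 300 nM BODIPY-GDP and read after 60 min. TR-FRET excitation 337 nm, ratio 520/490 nm ×10,000. IC50 from 4-parameter Hill fit of normalized data.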

SW480 cells = experiment: SW480 proliferation assay; format: cell-based; conditions: Homo sapiens, SW480, SW480; read-out: SW480 Prolif IC50 (G12V)
PC-9 cells = experiment: PC9 proliferation assay; format: cell-based, human; conditions: Homo sapiens, PC-9, PC9; read-out: PC9 Prolif IC50 (G12V)

Sequence of KRas(G12V) (P01116-2 other isoform, or with tags, fused parts or gaps G12V): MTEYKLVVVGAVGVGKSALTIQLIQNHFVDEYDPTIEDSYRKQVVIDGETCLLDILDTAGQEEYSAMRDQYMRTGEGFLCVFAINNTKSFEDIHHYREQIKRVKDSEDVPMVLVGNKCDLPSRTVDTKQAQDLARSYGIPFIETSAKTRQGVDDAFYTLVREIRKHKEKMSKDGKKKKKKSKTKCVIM
Sequence of KRas (P01116-2 other isoform, or with tags, fused parts or gaps): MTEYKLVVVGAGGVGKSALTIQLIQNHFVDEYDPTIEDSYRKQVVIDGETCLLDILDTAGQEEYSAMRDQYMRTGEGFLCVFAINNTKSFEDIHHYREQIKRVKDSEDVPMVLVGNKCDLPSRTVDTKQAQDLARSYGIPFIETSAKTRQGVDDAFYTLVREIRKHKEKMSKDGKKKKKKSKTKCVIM

| SMILES | IC50 (KRas(G12V)) [nM] | IC50 (KRas) [nM] | IC50 (SW480 cells) [nM] | IC50 (PC-9 cells) [nM] |
| --- | --- | --- | --- | --- |
| Cc1cc(N)nc(-c2cc3ncnc4c3c(c2Cl)OCCN4C(c2cccnc2N)C(F)(F)F)c1C(F)(F)F (stereo not shown) [Example 20, 6-(4-(1-(2-aminopyridin-3-yl)-2,2,2-trifluoroethyl)-8-chloro-5,6-dihydro-4H-[1,4]oxazepino[5,6,7-de]quinazolin-9-yl)-4-methyl-5-(trifluoromethyl)pyridin-2-amine] | 69 | 510 | 7300 | 8700 |
| Cc1cc(N)nc(-c2cc3ncnc4c3c(c2Cl)OCCN4Cc2cncnc2N)c1C(F)(F)F [Example 26, 5-((9-(6-amino-4-methyl-3-(trifluoromethyl)pyridin-2-yl)-8-chloro-5,6-dihydro-4H-[1,4]oxazepino[5,6,7-de]quinazolin-4-yl)methyl)pyrimidin-4-amine] | 53 | 330 | 9700 | 16000 |
| Cc1cc(N)cc(-c2cc3nc(OC[C@@]45CCCN4C[C@H](F)C5)nc4c3c(c2Cl)OCCN4C)c1C(F)(F)F [Example 39, 3-(8-chloro-2-(((2R,7aS)-2-fluorotetrahydro-1H-pyrrolizin-7a(5H)-yl)methoxy)-4-methyl-5,6-dihydro-4H-[1, 4]oxazepino[5,6,7-de]quinazolin-9-yl)-5-methyl-4-(trifluoromethyl)aniline] | 24 | 140 | 20000 | 20000 |
| Cc1cc(N)nc(-c2cc3ncnc4c3c(c2Cl)OCCN4CCn2ccccc2=O)c1C(F)(F)F [Example 51, 1-(2-(9-(6-amino-4-methyl-3-(trifluoromethyl)pyridin-2-yl)-8-chloro-5,6-dihydro-[1,4]oxazepino[5,6,7-de]quinazolin-4-yl)ethyl)pyridin-2(1H)-one] | 9500 | 12000 | 20000 | 20000 |
| C=C1CN2CCC[C@@]2(COc2nc3c4c(c(Cl)c(-c5cc(O)cc6ccccc56)cc4n2)OCCN3C)C1 [Example 59, (S)-4-(8-chloro-4-methyl-2-((2-methylenetetrahydro-1H-pyrrolizin-7a(5H)-yl)methoxy)-5,6-dihydro-4H-[1,4]oxazepino[5,6,7-de]quinazolin-9-yl)naphthalen-2-ol] | 57 | 270 | 7100 | 5800 |
| Nc1ncccc1CN1CCOc2c(Cl)c(-c3cccc4ccccc34)cc3nc(OC[C@@]45CCCN4C[C@H](F)C5)nc1c23 [Example 62, 3-((8-chloro-2-(((2R,7aS)-2-fluorotetrahydro-1H-pyrrolizin-7a(5H)-yl)methoxy)-9-(naphthalen-1-yl)-5,6-dihydro-4H-[1,4]oxazepino[5,6,7-de]quinazolin-4-yl)methyl)pyridin-2-amine] | 12 | 96 | 4900 | 3400 |
| Nc1ncccc1CN1CCOc2c(Cl)c(-c3cccc4c3CCC4)cc3nc(OC[C@@]45CCCN4C[C@H](F)C5)nc1c23 [Example 63, 3-((8-chloro-9-(2,3-dihydro-1H-inden-4-yl)-2-(((2R,7aS)-2-fluorotetrahydro-1H-pyrrolizin-7a(5H)-yl)methoxy)-5,6-dihydro-4H-[1,4]oxazepino[5,6,7-de]quinazolin-4-yl)methyl)pyridin-2-amine] | 8.7 | 69 | 3300 | 4000 |
| Nc1ncccc1CN1CCOc2c(Cl)c(-c3cccc(CO)c3)cc3nc(OC[C@@]45CCCN4C[C@H](F)C5)nc1c23 [Example 64, (3-(4-((2-aminopyridin-3-yl)methyl)-8-chloro-2-(((2R,7aS)-2-fluorotetrahydro-1H-pyrrolizin-7a(5H)-yl)methoxy)-5,6-dihydro-4H-[1,4]oxazepino[5,6,7-de]quinazolin-9-yl)phenyl)methanol] | 290 | 2700 | 17000 | 5400 |

These reach a lower IC50 (KRas(G12V)). Values come first.

| IC50 (KRas(G12V)) [nM] | IC50 (KRas) [nM] | IC50 (SW480 cells) [nM] | IC50 (PC-9 cells) [nM] | SMILES |
| --- | --- | --- | --- | --- |
| 5.1 | 29 | 5100 | 10000 | CN1CCOc2c(Cl)c(-c3cccc4sc(N)nc34)cc3nc(OC[C@@]45CCCN4C[C@H](F)C5)nc1c23 [Example 23, 4-(8-chloro-2-(((2R,7aS)-2-fluorotetrahydro-1H-pyrrolizin-7a(5H)-yl)methoxy)-4-methyl-5,6-dihydro-4H-[1,4]oxazepino[5,6,7-de]quinazolin-9-yl)benzo[d]thiazol-2-amine] |
| 8.2 | 110 | 7800 | 17000 | Cc1cc(N)nc(-c2cc3ncnc4c3c(c2Cl)OCCN4C(c2cccnc2N)C2CC2)c1C(F)(F)F (stereo not shown) [Example 28, 6-(4-((2-aminopyridin-3-yl)(cyclopropyl)methyl)-8-chloro-5,6-dihydro-4H-[1,4]oxazepino[5,6,7-de]quinazolin-9-yl)-4-methyl-5-(trifluoromethyl)pyridin-2-amine] |
| 0.39 | 0.63 | 780 | 1700 | Cc1cc(N)nc(-c2cc3nc(OC[C@@]45CCCN4CC4(C5)OCCO4)nc4c3c(c2Cl)OCCN4Cc2cccnc2N)c1C(F)(F)F [Example 35, (S)-6-(4-((2-aminopyridin-3-yl)methyl)-8-chloro-2-((dihydro-1H,3H-spiro[pyrrolizine-2,2′-[1,3]dioxolan]-7a(5H)-yl)methoxy)-5,6-dihydro-4H-[1,4]oxazepino[5,6,7-de]quinazolin-9-yl)-4-methyl-5-(trifluoromethyl)pyridin-2-amine] |
| 0.99 | 4.6 | 1200 | 2100 | C=C1CN2CCC[C@@]2(COc2nc3c4c(c(Cl)c(-c5nc(N)cc(C)c5C(F)(F)F)c(F)c4n2)OCCN3C)C1 [Example 40] |
| 2.7 | 17 | 4100 | 4800 | C=C1CN2CCC[C@@]2(COc2nc3c4c(c(Cl)c(-c5nc(N)cc(C)c5C(F)(F)F)cc4n2)OCCN3C)C1 [Example 44, (S)-6-(8-chloro-4-methyl-2-((2-methylenetetrahydro-1H-pyrrolizin-7a(5H)-yl)methoxy)-5,6-dihydro-4H-[1,4]oxazepino[5,6,7-de]quinazolin-9-yl)-4-methyl-5-(trifluoromethyl)pyridin-2-amine] |
| 0.57 | 3.8 | 1100 | 3800 | Cc1cc(N)nc(-c2cc3nc(OC[C@@H]4C[C@@H](F)CN4C)nc4c3c(c2Cl)OCCN4Cc2cccnc2N)c1C(F)(F)F [Example 49, 6-(4-((2-aminopyridin-3-yl)methyl)-8-chloro-2-(((2S,4R)-4-fluoro-1-methylpyrrolidin-2-yl)methoxy)-5,6-dihydro-4H-[1,4]oxazepino[5,6,7-de]quinazolin-9-yl)-4-methyl-5-(trifluoromethyl)pyridin-2-amine] |
| 0.42 | 0.48 | 230 | 2700 | Cc1cc(N)nc(-c2cc3nc(OC[C@@]45CCCN4C[C@H](F)C5)nc4c3c(c2Cl)OCCN4Cc2cccnc2N)c1C(F)(F)F [Example 60, 6-(4-((2-aminopyridin-3-yl)methyl)-8-chloro-2-(((2R,7aS)-2-fluorotetrahydro-1H-pyrrolizin-7a(5H)-yl)methoxy)-5,6-dihydro-4H-[1,4]oxazepino[5,6,7-de]quinazolin-9-yl)-4-methyl-5-(trifluoromethyl)pyridin-2-amine] |
| 0.86 | 4.3 | 940 | 3100 | Nc1ncccc1CN1CCOc2c(Cl)c(-c3cc(O)cc4ccccc34)cc3nc(OC[C@@]45CCCN4C[C@H](F)C5)nc1c23 [Example 61, 4-(4-((2-aminopyridin-3-yl)methyl)-8-chloro-2-(((2R,7aS)-2-fluorotetrahydro-1H-pyrrolizin-7a(5H)-yl)methoxy)-5,6-dihydro-4H-[1,4]oxazepino[5,6,7-de]quinazolin-9-yl)naphthalen-2-ol] |
| 0.06 | 0.19 | 33 | 730 | C=C1CN2CCC2(COc2nc3c4c(c(Cl)c(-c5nc(N)cc(C)c5C(F)(F)F)c(F)c4n2)OCCN3[C@H](C)c2cccnc2N)C1 (stereo partly drawn) [Example 118, (6R)-6-(4-((R)-1-(2-aminopyridin-3-yl)ethyl)-8-chloro-10-fluoro-2-((3-methylene-1-azabicyclo[3.2.0]heptan-5-yl)methoxy)-5,6-dihydro-4H-[1,4]oxazepino[5,6,7-de]quinazolin-9-yl)-4-methyl-5-(trifluoromethyl)pyridin-2-amine] |
| 0.05 | 0.14 | 16 | 3000 | C[C@H](c1cccnc1N)N1CCOc2c(Cl)c(-c3cc(O)cc4ccccc34)c(F)c3nc(OC[C@@]45CCCN4C[C@H](F)C5)nc1c23 [Example 119, 4-(4-((R)-1-(2-aminopyridin-3-yl)ethyl)-8-chloro-10-fluoro-2-(((2R,7aS)-2-fluorotetrahydro-1H-pyrrolizin-7a(5H)-yl)methoxy)-5,6-dihydro-4H-[1,4]oxazepino[5,6,7-de]quinazolin-9-yl)naphthalen-2-ol] |
| 0.08 | 0.21 | 590 | 1600 | Cc1cc(N)nc(-c2c(Cl)c3c4c(nc(OCC5CCN(C)C5)nc4c2F)N([C@H](C)c2cccnc2N)CCO3)c1C(F)(F)F (stereo partly drawn) [Example 134, 6-((9R)-4-((R)-1-(2-aminopyridin-3-yl)ethyl)-8-chloro-10-fluoro-2-((1-methylpyrrolidin-3-yl)methoxy)-5,6-dihydro-4H-[1,4]oxazepino[5,6,7-de]quinazolin-9-yl)-4-methyl-5-(trifluoromethyl)pyridin-2-amine] |
